# Measurements published in patent US20250194596A1 (priority 2023, published 2025).
# Counter-ions that a name gives are not always drawn. Like-named read-outs stand apart in the source and are kept apart here.
# Assays:
# CLas [1] = assay type: in vivo, Candidatus Liberibacter asianticum
# [2] = on human beings and animals; cited from earlier work
# CLas [3] = assay type: in vivo, Candidatus Liberibacter asianticum; details: injection into the tree trunks for one week
# [4] = assay type: physicochemical; details: 10 mg/mL in water
compound,measurement,setting,value
"CN(C)[C@@H]1C(O)=C(C(N)=O)C(=O)[C@@]2(O)C(O)=C3C(=O)c4c(O)cccc4[C@@](C)(O)[C@H]3[C@H](O)[C@@H]12 [oxytetracycline hydrochloride, reference compound]",reduction of CLas content,"CLas [1]; 20 mg/mL, mesophyll injection, 3 d",about 20%
rhamnolipid,toxic or side effects,[2],no toxic or side effects
O=C(/C=C/c1ccc(O)c(O)c1)O[C@@H]1C[C@](O)(C(=O)O)C[C@@H](O)[C@H]1O [chlorogenic acid],CLas content reduced,"CLas [1]; 0.5 mg/mL chlorogenic acid, mesophyll injection, 3 d",more than 60%
same,inhibitory effect on CLas,"CLas [1]; 10 mg/mL, mesophyll injection, 3 d",equivalent to that of 5 mg/mL
same,antibacterial effect on CLas,"CLas [1]; concentrations below 0.5 mg/mL, mesophyll injection, 3 d",not obvious
same,concentration achieving a significant inhibitory effect on CLas,CLas [1]; in vivo,not less than 5 mg/mL
same,reduction of CLas content,CLas [1]; injection into the mesophyll for 3 days,about 60%
same,minimum inhibitory concentration (MIC) of chlorogenic acid for CLas,"CLas [1]; mesophyll injection of HLB-infected leaves, CLas content after 3 d",500 µg/mL
same,reduction of CLas content,CLas [3],about 60%
same,appearance of solution,[4],turbid
"CC1(C)S[C@@H]2[C@H](NC(=O)[C@H](N)c3ccccc3)C(=O)N2[C@H]1C(=O)O [ampicillin, reference compound]",CLas content reduced,"CLas [1]; 12 mg/mL, mesophyll injection, 3 d",more than 80%
